Each structure is given as a SMILES string.

The target of the experiment is T1, human GPR120 (Homo sapiens, UniProt Q5NUL3).
T1 construct: expressed in transfected cells; host or cells: CHOA12 cells or CHO-K1 cells, stably transfected
T1 sequence (Q5NUL3 1-361): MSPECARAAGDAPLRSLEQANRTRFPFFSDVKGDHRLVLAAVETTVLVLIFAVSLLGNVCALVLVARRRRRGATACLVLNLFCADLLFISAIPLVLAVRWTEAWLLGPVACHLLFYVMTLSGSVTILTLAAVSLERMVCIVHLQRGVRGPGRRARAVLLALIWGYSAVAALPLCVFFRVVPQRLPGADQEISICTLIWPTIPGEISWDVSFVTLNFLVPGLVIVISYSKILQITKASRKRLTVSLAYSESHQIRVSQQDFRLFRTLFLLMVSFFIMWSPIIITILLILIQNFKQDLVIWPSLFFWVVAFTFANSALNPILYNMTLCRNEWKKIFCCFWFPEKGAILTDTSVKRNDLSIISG
The experiment in a line: GPR120 pERK AlphaScreen SureFire Assay (human GPR120 pERK assay). Format: cell-based. The note with it: CHO cells stably transfected with the short form of human GPR120 receptor. From the text:
GPR120 activity was monitored by measuring phosphorylation of ERK (pERK), since G protein receptors are known to activate the ERK signaling cascade either directly and/or through recruitment of arrestin that serves as a scaffold for downstream signaling events.
GPR120 pERK AlphaScreen SureFire Assay
The human and mouse GPR120-mediated intracellular phosphorylated ERK assays were established using CHOAl2 cells stably transfected with the short form of human or mouse GPR120 receptor. Cells were cultured in growth medium consisting of F-12 media (Invitrogen Cat. #11765) with 5% Charcoal/Dextran FBS (Invitrogen Cat. #12676-029), 500 μg/mL GENETICIN® (Life Technologies Cat. #10131-027) and 250 μg/mL Zeocin (Invitrogen Cat. #R250-01). Cells were cryo preserved at a concentration of 2×10^7 cells/mL, in 90% Charcoal/Dextran FBS and 10% DMSO, and frozen in liquid nitrogen at a low passage number.
For the pERK assay, 2×10^7 cells/mL cryopreserved human and mouse cells were thawed rapidly in a 37° C. water bath and added to a T-225 flask containing 50 mL growth medium. The flasks were placed in a tissue culture incubator overnight (37° C., 5% CO2). The next day, cells were harvested with trypsin (Gibco Cat. #25300-054), resuspended in serum-containing growth medium and counted using a Cellometer and volume adjusted to a concentration of 0.6×10^6cells/mL. Cells were plated into 384-well clear bottom tissue culture plates (BD Cat. #353962) at 50 μL/well, for a density of 30,000 cells/well using a MULTIDROP® and incubated for 16-18 hours (overnight) at 37° C. with 5% CO2. The next day, cells were serum starved in 30 μL of F-12 media without any serum or antibiotics for 2 hours at 37° C.
Test compounds were 3-fold, 11-point serially diluted in DMSO in a REMP assay plate (Matrix Cat. #4307) by Tecan and 5 μL was transferred into an ECHO source plate (Labcyte Cat. #LC-0200). Cells were then stimulated with 50 nL of compound dilutions using ECHO liquid handler for 7 minutes at 37° C. Compounds ranged from final assay concentrations of 33.33 μM to 0.56 nM.
The media was then dumped and cells lysed with 20 μL of 1× Lysis buffer from the AlphaScreen SureFire Phospho-ERK 1/2 Kit (Perkin Elmer Cat. #6760617M). The lysis buffer was diluted 5-fold with water before use. The plate was agitated on a shaker for 10 minutes after which 2 μL was transferred into a 384-well white proxiplate (Perkin Elmer Cat. #6008289). The SureFire assay reagent mix was prepared by mixing 60 parts Reaction Buffer, 10 parts Activation Buffer, 1 part Donor Beads, 1 part Acceptor Beads (Perkin Elmer Cat. #TGRES10K). 3.5 μL/well of this reagent mix was manually added to the proxiplate with a multichannel pipettor. Plates were spun down at 1000 rpm for 2 minutes, followed by light-protected incubation at room temperature for 2 hours. The plates were read on the Alpha-technology compatible Envision multilabel plate reader using AlphaScreen protocol according to manufacturer's specifications. The agonist effect of compounds was expressed as 100×(average sample-average blank)/(average total−average blank) where sample is the luminescence activity in the presence of test compound, blank is equal to the luminescence activity in the presence of DMSO control and the total is signal induced by 50 μM linolenic acid as reference compound. Activation data for the test compound over a range of concentrations was plotted as percentage activation of the test compound (100%=maximum response). After correcting for background, EC50 values were determined. The EC50 is defined as the concentration of test compound which produces 50% of the maximal response and was quantified using the 4 parameter logistic equation to fit the data.
The human and mouse GPR120-mediated intracellular phosphorylated ERK assays were also established using CHO-K1 cells stably transfected with the short form of human or mouse GPR120 receptor. […]
Take `CC1(C)Cc2cc(Cl)cc(COC34CCC(CCC(=O)O)(CC3)CC4)c2O1` [Example 1, 3-(4-((5-Chloro-2,2-dimethyl-2,3-dihydrobenzofuran-7-yl)methoxy)bicyclo[2.2.2]octan-1-yl)propanoic acid]: the EC50 (in general, the concentration giving half of the maximal effect) was 610 nM.
The result for `CC1(C)Cc2cc(Cl)cc(COC34CCC(CCCC(=O)O)(CC3)CC4)c2O1` [Example 2, 4-(4-((5-Chloro-2,2-dimethyl-2,3-dihydrobenzofuran-7-yl)methoxy)bicyclo[2.2.2]octan-1-yl)butanoic acid] reads 2470 nM; that for `N#Cc1cccc(OC23CCC(CCCC(=O)O)(CC2)CC3)c1` [Example 3, 4-(4-(3-Cyanophenoxy)bicyclo[2.2.2]octan-1-yl)butanoic acid], 1110 nM.
In turn, `Cc1cc(COC23CCC(CCC(=O)O)(CC2)CC3)n(-c2ccc(Cl)cc2)n1` [Example 4, 3-(4-((1-(4-Chlorophenyl)-3-methyl-1H-pyrazol-5-yl)methoxy)bicyclo[2.2.2]octan-1-yl)propanoic acid] came in with an EC50 of 2740 nM.
Next, `O=C(O)CCC12CCC(OCc3cccc(Oc4ccccc4)c3)(CC1)CC2` [Example 5, 3-(4-(3-Phenoxy-benzyloxy)bicyclo[2.2.2]octan-1-yl)propanoic acid]: 430 nM.
On to `O=C(O)CCC12CCC(OCc3ccccc3Oc3ccccc3)(CC1)CC2` [Example 6, 3-(4-(2-Phenoxy-benzyloxy)bicyclo[2.2.2]octan-1-yl)propanoic acid], for which a half-maximal effect (EC50) was put at 400 nM.
The result for `COc1cccc(COC23CCC(CCCC(=O)O)(CC2)CC3)c1` [Example 7, 4-(4-(3-Methoxy-benzyloxy)bicyclo[2.2.2]octan-1-yl)butanoic acid] reads 6910 nM; that for `O=C(O)CCC12CCC(OCc3cc(F)cc(Oc4ccccc4)c3)(CC1)CC2` [Example 8, 3-(4-(3-Fluoro-5-phenoxy-benzyloxy)bicyclo [2.2.2]octan-1-yl)propanoic acid], 270 nM; that for `O=C(O)CCC12CCC(OCc3cc(F)ccc3Oc3ccccc3)(CC1)CC2` [Example 9, 3-(4-(5-Fluoro-2-phenoxybenzyloxy)bicyclo[2.2.2]octan-1-yl)propanoic acid], 280 nM.
The result for `O=C(O)COCC12CCC(OCc3cccc(Oc4ccccc4)c3)(CC1)CC2` [Example 10, 2-((4-(3-Phenoxybenzyloxy)bicyclo[2.2.2]octan-1-yl)methoxy)acetic acid] reads 680 nM; that for `CC(C)Oc1cc(F)cc(COC23CCC(CCC(=O)O)(CC2)CC3)c1` [Example 11, 3-(4-(3-Fluoro-5-isopropoxybenzyloxy)bicyclo[2.2.2]octan-1-yl)propanoic acid], 870 nM.
Next, `O=C(O)CCC12CCC(OCc3cc(F)cc(Oc4ccc(F)cc4)c3)(CC1)CC2` [Example 12, 3-(4-(3-Fluoro-5-(4-fluorophenoxy)benzyloxy)bicyclo[2.2.2]octan-1-yl)propanoic acid]: 540 nM; `CC1(C)Cc2cc(Cl)cc(OCC34CCC(/C=C/C(=O)O)(CC3)CC4)c2O1` [Example 13, (E)-3-(4-(((5-Chloro-2,2-dimethyl-2,3-dihydrobenzofuran-7-yl)oxy)methyl)bicyclo[2.2.2]octan-1-yl)acrylic acid]: 2690 nM.
In turn, `CC1(C)Cc2cccc(OCC34CCC(CCC(=O)O)(CC3)CC4)c2O1` [Example 14, 3-(4-(((2,2-Dimethyl-2,3-dihydrobenzofuran-7-yl)oxy)methyl)bicyclo[2.2.2]octan-1-yl)propanoic acid] gave an EC50 of 900 nM.
Next, `CC1(C)Cc2cc(Cl)cc(OCC34CCC(CCC(=O)O)(CC3)CC4)c2O1` [Example 15, 3-(4-(((5-Chloro-2,2-dimethyl-2,3-dihydrobenzofuran-7-yl)oxy)methyl)bicyclo[2.2.2]octan-1-yl)propanoic acid]: 1340 nM.

The values above are taken from patent US9598390B2, “Bicyclo[2.2.2]acid GPR120 modulators” (BRISTOL-MYERS SQUIBB COMPANY, priority 2013, dated 2017).
